Assay results published in the NIST ThermoML archive (doi:10.1016/j.fluid.2013.07.028).
± gives the expanded uncertainty stated by the source.

Tests used:
[1] = refractive index (Na D-line) (dimensionless); details: 298.15 K; 101.33 kPa; Liquid; Standard Abbe refractometry
[2] = 298.15 K; 101.33 kPa; Liquid; Vibrating tube method

Row | SMILES | refractive index [1] | mass density [2] [kg/m3]
1 | CC(=O)[O-].CCn1cc[n+](C)c1 [1-ethyl-3-methylimidazolium acetate] | 1.50069 ± 0.001 | 1099.02 ± 8.4
2 | CCOP(=O)([O-])OCC.CCn1cc[n+](C)c1 [1-ethyl-3-methylimidazolium diethyl phosphate] | 1.47304 ± 0.001 | 1148.4 ± 9.2
3 | CCCCCC [hexane] | 1.37236 ± 0.00037 | 655.09 ± 0.33
4 | c1ccncc1 [pyridine] | 1.50636 ± 0.00033 | 978.04 ± 0.12
5 | c1ccsc1 [thiophene] | 1.52523 ± 0.00033 | 1058.61 ± 0.15
6 | Cc1ccccc1 [toluene] | 1.49367 ± 0.00033 | 862.18 ± 0.16
